Values after ≈ are worked out from the molar mass of the structure shown.
Legend:
[1] = Solubility of 5-azacytidine in various solvents at ambient temperature (visual, solvent aliquot addition); format: physicochemical; conditions: thermodynamic from solid
Method: Solubility was estimated by treating a weighed sample of 5-azacytidine with measured aliquots of the test solvent at ambient temperature, with shaking and/or sonication between aliquots. Dissolution was determined by visual inspection. Solubility numbers were calculated by dividing the […]. The actual solubilities may be greater than the numbers calculated because of the use of solvent aliquots that were too large or because of slow dissolution rates. […] The solubility number is expressed as “greater than” if dissolution occurred on addition of the first solvent aliquot.

[2] = system: subjects with higher-risk MDS; conditions: Phase III study, administered subcutaneously; cited from earlier work

Work on `Nc1ncn([C@@H]2O[C@H](CO)[C@@H](O)[C@H]2O)c(=O)n1` [5-azacytidine, 4-amino-1-β-D-ribofuranosyl-1,3,5-triazin-2(1H)-one] yielded a solubility ([1]; 1:1 methanol/water, aqueous with cosolvent or surfactant or cyclodextrin, 1:1 methanol/water) of 2800 µg/mL (≈ 11.5 mM), a solubility ([1]; 1:2 methanol/water, aqueous with cosolvent or surfactant or cyclodextrin, 1:2 methanol/water) of 3100 µg/mL (≈ 12.7 mM) and a solubility ([1]; 1:2 methanol/water, aqueous with cosolvent or surfactant or cyclodextrin, 1:2 methanol/water (second line printed with this solvent)) of 4600 µg/mL (≈ 18.8 mM). For the same compound, the solubility ([1]; DMF, organic solvent or mixture) was 1700 µg/mL (≈ 6.96 mM), the solubility ([1]; DMSO, organic solvent or mixture) was 2200 µg/mL (≈ 9.01 mM) and the “Survival and time to AML transformation or death” value [2] was “significantly prolonged survival and time to AML transformation or death”.
